What was measured:
IDO1 in HeLa cells = IDO1 in HeLa cells (Homo sapiens (Human), UniProt P14902); assay: HeLa cell based IDO1 assay (IFNγ-induced, KYN in supernatant)
Procedure, shortened: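 HeLa cells were induced overnight with IFNγ (50 ng/mL), washed, then exposed to compound (typically 10 μM–1 nM) in HBSS with 80 μM L-tryptophan. Supernatant was TCA-treated at 65 °C for 15 min to convert N-formylkynurenine, and KYN was measured by HPLC-UV at 360 nm. IC50 came from nonlinear regression against a 1% DMSO control.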

[1] = target: Human TDO (hTDO)-transfected CHO-K1 cells (Homo sapiens (Human), UniProt P48775); assay: CHO-K1 cell based TDO assay; settings: hTDO cellular assay
Procedure, shortened: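 Stably hTDO-expressing CHO-K1 cells were exposed to compounds (typically 31 μM to 10 nM) in HBSS with 80 μM L-tryptophan for 2 h. TCA-treated supernatant was heated at 65° C for 15 min to convert N-formylkynurenine, then kynurenine was quantified by LC/MS/MS. IC50 came from percent inhibition versus DMSO control.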

[2] = target: Human indoleamine 2,3-dioxygenase1 (hIDO1) (Homo sapiens (Human), UniProt P14902); assay: In-vitro IDO1 enzyme assay (conversion of L-tryptophan to KYN); type: biochemical; settings: read-out: IC50 (IDO1) Enz
Procedure, shortened: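 His-tagged hIDO1 (10 nM, E. coli-expressed) incubated with 30 μM L-tryptophan, 20 mM ascorbate, 10 μM methylene blue and 100 μg/mL catalase in 50 mM potassium phosphate pH 6.5, 30 min at 37 °C. TCA stop, then 65 °C hydrolysis; KYN measured by HPLC-UV at 360 nm or LC/MS/MS. IC50 by nonlinear regression versus 1% DMSO control.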

Chain of IDO1 in HeLa cells (P14902 whole entry): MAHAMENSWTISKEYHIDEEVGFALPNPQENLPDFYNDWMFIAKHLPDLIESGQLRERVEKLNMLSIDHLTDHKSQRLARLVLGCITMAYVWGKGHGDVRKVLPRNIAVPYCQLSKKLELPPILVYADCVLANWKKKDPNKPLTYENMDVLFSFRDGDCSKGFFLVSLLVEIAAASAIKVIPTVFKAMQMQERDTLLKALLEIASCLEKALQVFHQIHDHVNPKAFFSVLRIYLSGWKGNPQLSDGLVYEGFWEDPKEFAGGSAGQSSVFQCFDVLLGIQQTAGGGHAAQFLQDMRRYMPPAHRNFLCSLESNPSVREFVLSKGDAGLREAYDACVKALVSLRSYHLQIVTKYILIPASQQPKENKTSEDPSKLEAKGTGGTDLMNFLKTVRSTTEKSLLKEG
Chain of Human indoleamine 2,3-dioxygenase1 (hIDO1) (P14902 whole entry): as above
Chain of Human TDO (hTDO)-transfected CHO-K1 cells (P48775 whole entry): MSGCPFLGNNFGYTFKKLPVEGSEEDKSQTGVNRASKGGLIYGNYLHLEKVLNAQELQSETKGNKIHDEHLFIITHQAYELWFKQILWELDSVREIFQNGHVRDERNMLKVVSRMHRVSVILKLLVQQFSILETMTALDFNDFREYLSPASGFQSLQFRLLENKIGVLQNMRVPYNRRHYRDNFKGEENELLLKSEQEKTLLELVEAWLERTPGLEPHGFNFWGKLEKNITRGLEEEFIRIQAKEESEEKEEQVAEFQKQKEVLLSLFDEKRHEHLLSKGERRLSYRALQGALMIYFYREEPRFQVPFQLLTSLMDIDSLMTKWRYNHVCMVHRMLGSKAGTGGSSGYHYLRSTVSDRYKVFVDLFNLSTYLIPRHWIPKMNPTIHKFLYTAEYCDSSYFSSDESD

IC50 (IDO1 in HeLa cells) [nM] | IC50 [1] [nM] | IC50 [2] [nM] | SMILES
< 200 | < 500 | < 200 | Cc1cc(-c2nccc3c(Nc4ccc(F)cc4)c(N)oc23)ccn1 [Compound 208, N^3-(4-fluorophenyl)-7-(2-methylpyridin-4-yl)furo[2,3-c]pyridine-2,3-diamine]
< 200 | 500 to 2000 | < 200 | Nc1oc2c(F)nc(F)cc2c1Nc1ccc(F)c(Cl)c1 [Compound 190, N^3-(3-Chloro-4-fluorophenyl)-5,7-difluorofuro[2,3-c]pyridine-2,3-diamine]
< 200 | > 2000 | < 200 | Nc1oc2c(-c3ccnc(C(=O)NC4CCCCC4)c3)nccc2c1Nc1ccc(F)c(Cl)c1 [Compound 257, 4-(2-Amino-3-((3-chloro-4-fluorophenyl)amino)furo[2,3-c]pyridin-7-yl)-N-cyclohexylpicolinamide]
< 200 | 500 to 2000 | < 200 | COc1cc2c(Nc3ccc(F)c(Cl)c3)c(N)oc2cn1 [Compound 64, N^3-(3-Chloro-4-fluoro-phenyl)-5-methoxy-furo[2,3-c]pyridine-2,3-diamine]
< 200 | < 500 | < 200 | Nc1oc2c(I)nccc2c1Nc1ccc(F)c(Cl)c1 [Compound 153, N^3-(3-Chloro-4-fluorophenyl)-7-iodofuro[2,3-c]pyridine-2,3-diamine]
< 200 | 500 to 2000 | < 200 | Cc1cc(-c2cccc3c(Nc4cccc(Cl)c4)c(N)sc23)ccn1 [Compound 248, N^3-(3-Chlorophenyl)-7-(2-methylpyridin-4-yl)benzo[b]thiophene-2,3-diamine]
< 200 | 500 to 2000 | < 200 | CCc1nccc2c(Nc3cccc(C(F)(F)F)c3)c(N)oc12 [Compound 76, 7-Ethyl-N^3-(3-(trifluoromethyl)phenyl)furo[2,3-c]pyridine-2,3-diamine]
< 200 | < 500 | < 200 | Nc1sc2ccccc2c1Nc1cccc(F)c1 [Compound 120, N^3-(3-Fluorophenyl)benzo[b]thiophene-2,3-diamine]
< 200 | < 500 | < 200 | Nc1oc2c(-c3cccc4ccccc34)nccc2c1Nc1ccc(F)c(Cl)c1 [Compound 204, N^3-(3-Chloro-4-fluorophenyl)-7-(naphthalen-1-yl)furo[2,3-c]pyridine-2,3-diamine]
< 200 | < 500 | < 200 | Nc1oc2cnc(F)cc2c1Nc1ccc(F)cc1 [Compound 228, 5-Fluoro-N^3-(4-fluorophenyl)furo[2,3-c]pyridine-2,3-diamine]
< 200 | > 2000 | < 200 | Cc1cc(-c2nc(C)cc3c(Nc4ccc(F)c(Cl)c4)c(N)oc23)ccn1 [Compound 267, N^3-(3-Chloro-4-fluorophenyl)-5-methyl-7-(2-methylpyridin-4-yl)furo[2,3-c]pyridine-2,3-diamine]
< 200 | 500 to 2000 | < 200 | Nc1oc2c(-c3ccncc3)nc(F)cc2c1Nc1ccc(F)c(Cl)c1 [Compound 180, N^3-(3-Chloro-4-fluorophenyl)-5-fluoro-7-(pyridin-4-yl)furo[2,3-c]pyridine-2,3-diamine]
< 200 | 500 to 2000 | < 200 | Nc1oc2c(-c3cc(F)nc(F)c3)nccc2c1Nc1ccc(F)c(Cl)c1 [Compound 191, N^3-(3-Chloro-4-fluorophenyl)-7-(2,6-difluoropyridin-4-yl)furo[2,3-c]pyridine-2,3-diamine]
< 200 | 500 to 2000 | < 200 | Cc1cc(C)cc(-c2nccc3c(Nc4ccc(F)c(Cl)c4)c(N)oc23)c1 [Compound 277, N^3-(3-Chloro-4-fluorophenyl)-7-(3,5-dimethylphenyl)furo[2,3-c]pyridine-2,3-diamine]
< 200 | 500 to 2000 | < 200 | COc1cc(-c2nccc3c(Nc4ccc(F)c(Cl)c4)c(N)oc23)ccn1 [Compound 229, N^3-(3-Chloro-4-fluorophenyl)-7-(2-methoxypyridin-4-yl)furo[2,3-c]pyridine-2,3-diamine]
< 200 | > 2000 | < 200 | Cc1nccc2c(Nc3cccc(C(F)(F)F)c3)c(N)oc12 [Compound 80, 7-Methyl-N^3-(3-(trifluoromethyl)phenyl)furo[2,3-c]pyridine-2,3-diamine]
< 200 | > 2000 | < 200 | Cc1cc(-c2cccc3c(Nc4ccc(F)c(Cl)c4)c(N)sc23)ccn1 [Compound 240, N^3-(3-Chloro-4-fluorophenyl)-7-(2-methylpyridin-4-yl)benzo[b]thiophene-2,3-diamine]
< 200 | > 2000 | < 200 | Cc1cc(-c2nccc3c(Nc4cc(Cl)ccc4F)c(N)oc23)ccn1 [Compound 263, N^3-(5-Chloro-2-fluorophenyl)-7-(2-methylpyridin-4-yl)furo[2,3-c]pyridine-2,3-diamine]
< 200 | 500 to 2000 | < 200 | CNC(=O)c1cc(-c2nccc3c(Nc4ccc(F)c(F)c4)c(N)oc23)ccn1 [Compound 223, 4-(2-Amino-3-((3,4-difluorophenyl)amino)furo[2,3-c]pyridin-7-yl)-N-methylpicolinamide]

SMILES | IC50 (IDO1 in HeLa cells) [nM] | IC50 [1] [nM] | IC50 [2] [nM]
Cc1cc(Cl)cc(Nc2c(N)oc3cnccc23)c1 [Compound 87, N^3-(3-Chloro-5-methylphenyl)furo[2,3-c]pyridine-2,3-diamine] | 200 to 1000 | 500 to 2000 | 200 to 1000
Nc1oc2cnccc2c1Nc1cc(Cl)ccc1Cl [Compound 55, N^3-(2,5-Dichlorophenyl)furo[2,3-c]pyridine-2,3-diamine] | < 200 | > 2000 | > 1000
Nc1oc2c(-c3ccncc3)nccc2c1Nc1cc(F)cc(F)c1 [Compound 187, N^3-(3,5-Difluorophenyl)-7-(pyridin-4-yl)furo[2,3-c]pyridine-2,3-diamine] | < 200 | < 500 | 200 to 1000
C#Cc1cccc(Nc2c(N)sc3ccccc23)c1 [Compound 137, N^3-(3-Ethynylphenyl)-1-benzothiophene-2,3-diamine] | < 200 | > 2000 | 200 to 1000
Nc1oc2cnccc2c1Nc1ccc2c(c1)CCCC2 [Compound 71, N^3-(5,6,7,8-Tetrahydronaphthalen-2-yl)furo[2,3-c]pyridine-2,3-diamine] | < 200 | > 2000 | > 1000
Nc1oc2cnccc2c1Nc1ccc(F)c(OC(F)(F)F)c1 [Compound 62, N^3-(4-Fluoro-3-(trifluoromethoxy)phenyl)furo[2,3-c]pyridine-2,3-diamine] | < 200 | > 2000 | 200 to 1000
Nc1oc2cnccc2c1Nc1cc(Cl)c(F)cc1F [Compound 51, N^3-(5-Chloro-2,4-difluorophenyl)furo[2,3-c]pyridine-2,3-diamine] | < 200 | > 2000 | > 1000
N#Cc1ccc2c(Nc3ccccc3Cl)c(N)oc2c1 [Compound 116, 2-Amino-3-((2-chlorophenyl)amino)benzofuran-6-carbonitrile] | 200 to 1000 | > 2000 | > 1000
Nc1oc2cnccc2c1Nc1ccccc1 [Compound 3, N^3-Phenylfuro[2,3-c]pyridine-2,3-diamine] | < 200 | < 500 | 200 to 1000
CCc1cc2c(Nc3ccc(F)c(Cl)c3)c(N)oc2c(-c2ccccc2)n1 [Compound 109, N^3-(3-chloro-4-fluorophenyl)-5-ethyl-7-phenylfuro[2,3-c]pyridine-2,3-diamine] | 200 to 1000 | > 2000 | 200 to 1000
Nc1oc2cnccc2c1Nc1cccc(Cl)c1 [Compound 8, N^3-(3-Chlorophenyl)furo[2,3-c]pyridine-2,3-diamine] | < 200 | 500 to 2000 | 200 to 1000
CCOC(=O)Nc1oc2c(-c3ccnc(C)c3)nccc2c1N(C(=O)OCC)c1ccc(F)c(F)c1 [Compound 279, Ethyl (3,4-difluorophenyl)(2-((ethoxycarbonyl)amino)-7-(2-methylpyridin-4-yl)furo[2,3-c]pyridin-3-yl)carbamate] | > 1000 | > 2000 | > 1000
Nc1oc2cnccc2c1Nc1ccc2c(c1)OCO2 [Compound 35, N^3-(Benzo[d][1,3]dioxol-5-yl)furo[2,3-c]pyridine-2,3-diamine] | < 200 | 500 to 2000 | 200 to 1000
Nc1oc2cnccc2c1Nc1ccc(F)c(Cl)c1F [Compound 44, N^3-(3-Chloro-2,4-difluorophenyl)furo[2,3-c]pyridine-2,3-diamine] | < 200 | 500 to 2000 | 200 to 1000
Nc1sc2ccccc2c1Nc1ccc(Br)c(C(F)(F)F)c1 [Compound 126, N^3-(4-Bromo-3-(trifluoromethyl)phenyl)benzo[b]thiophene-2,3-diamine] | 200 to 1000 | > 2000 | 200 to 1000

— US10294212B2 (CURADEV PHARMA PRIVATE LTD., priority 2013, dated 2019)
